Values of other authors as cited in paper PMC12207366, “Protonated Glutamate and Aspartate Side Chains Can Recognize Phosphodiester Groups via Strong and Short Hydrogen Bonds in Biomacromolecular Complexes” (Angewandte Chemie (International Ed. in English), 2025).

Conditions: unstructured peptides; cited from earlier work

N[C@@H](CC(=O)O)C(=O)O [aspartate]
pKa of side chain carboxylate group: ~3.9
